One block for each compound: values may come before it.
Columns and labels:
R15A-PP1c = molecular target: T1, R15A-PP1c (Homo sapiens, UniProt O75807); assay: In vitro dephosphorylation of P-eIF2α by recombinant R15A-PP1c holophosphatase (10 nM PP1c); type: biochemical; conditions: PP1c 10 nM, 1 μM P-eIF2α, compounds 100 μM, 30° C., 16 h
T1 construct: PPP1R15A amino acids 325-636 (R15A); His6 (C); made in house; host or cells: E. coli BL21 pLysS (R15A, eIF2α); E. coli BL21/pGro7 (PP1c)
Method: (§1) PP1c was diluted to the appropriate concentration (as indicated in the figure legends) in dephosphorylation buffer immediately prior to use. Dephosphorylation reactions were carried out by pre-incubating diluted PP1c in the presence or absence of regulatory subunits (either […]), and/or compounds (all at 100 μM, except for Salubrinal which was used at 30 μM), for 15′ at RT. All compounds were diluted in DMSO, and DMSO vehicle was used in all control experiments.
(§2) The reaction was initiated by the addition of 1 μM P-eIF2α or ^33P Phosphorylase a substrates and then incubated at 30° C. for 16 h with shaking at 350 rpm. Reactions were stopped by addition of 4× Laemmli sample buffer. eIF2α samples were analyzed by immunoblotting or Phos-tag gels. […] Samples in FIG. 8 and FIG. 16 were run on a 15% SuperSep Phos-tag acrylamide gel (Alpha Laboratories) and visualized by staining with InstantBlue Protein Stain.

HeLa cells = assay: Cytoprotection of HeLa cells from Tunicamycin (ER) stress; type: cell-based; conditions: 250 ng/ml Tunicamycin, 72 h
Method: HeLa cells (40,000 cells/ml) were plated in a 96-well plate and treated with different concentrations of compound, as indicated, or DMSO vehicle in the presence of 250 ng/ml Tunicamycin for 72 h. To monitor cell death, 1/2000 dilution of the CellTox green dye (Promega) was added to the media. The growth of the cells was monitored over time and pictures taken every 2 h with the IncuCyte ZOOM system and analysed by the IncuCyte ZOOM software (Essen BioScience). To compare different compounds and their cytoprotective effect, a growth ratio for each time point was calculated:
Growth ratio=(Phase confluency (%) at X hours)/(Phase confluency (%) at 0 hours)
The end point of the assay (72 h) was chosen for generating the graphs.

R15A [1] = molecular target: T2, R15A (Homo sapiens, UniProt O75807); assay: Limited trypsin proteolysis of R15A (conformational change); conditions: 100 μM compound, 0.5 μM R15A, 2.5 nM trypsin, 30 min to 3 h, 22° C.
T2 construct: PPP1R15A amino acids 325-636 (R15A); His6 (C); made in house; host or cells: E. coli BL21 pLysS
Method: (§3) Reactions were allowed to proceed at 22° C. with shaking at 350 rpm. At time points 30 min, 1 h, 2 h or 3 h, 30 μl of sample was removed from the mix and digestion was stopped by addition of 10 μl of 16% SDS Laemmli sample buffer. Samples were run on 4-12% NuPAGE Bis-Tris gels (Life Technologies). Proteins were visualised by staining with InstantBlue Coomassie Protein Stain (Expedeon) protein stain.
(§4) Purified R15A and R15B were diluted to 3 μM in PBS, and incubated for 15′ at RT with 100 μM Raphin1, or DMSO vehicle. Reactions were initiated by addition of 5 nM of trypsin from bovine pancreas (Sigma), made up in PBS, and allowed to proceed for 5′ at 22° C., with shaking at 350 rpm. Digestion was stopped by addition of 4× Laemmli sample buffer and samples were run on 4-12% NuPAGE Bis-Tris gels (Life Technologies). Proteins were visualised by staining with InstantBlue Protein Stain.

R15A [2] = molecular target: T2, R15A; assay: Light scattering to monitor aggregation of R15A; conditions: 5 μM R15A, 10 min, 20° C.
Method: Samples were incubated for 10 min at RT. […] Therefore, light scattering was measured at 380 nm emission, 380 nm absorption to monitor the presence of aggregates. For each sample, 100 data points were collected over a period of 10 min, at 20° C., with constant stirring.

R15B-PP1c = molecular target: T3, R15B-PP1c (Homo sapiens, UniProt Q5SWA1); assay: In vitro dephosphorylation of P-eIF2α by recombinant R15B-PP1c holophosphatase (10 nM PP1c); type: biochemical; conditions: PP1c 10 nM, 1 μM P-eIF2α, compounds 100 μM, 30° C., 16 h
T3 construct: PPP1R15B amino acids 340-698 (R15B); His6 (C); made in house; host or cells: E. coli BL21 pLysS (R15B, eIF2α); E. coli BL21/pGro7 (PP1c)
Method: as §1
The reaction was initiated by the addition of 1 μM P-eIF2α or ^33P Phosphorylase a substrates and then incubated at 30° C. for 16 h with shaking at 350 rpm. Reactions were stopped by addition of 4× Laemmli sample buffer. eIF2α samples were analyzed by immunoblotting or Phos-tag gels. P-eIF2α dephosphorylation was analysed by immunoblotting using anti-Phospho-eIF2α (SerS1) (#9721) (Cell Signaling) and anti-eIF2α (ab26197) (AbCam) antibodies. Samples in FIG. 8 and FIG. 16 were run on a 15% SuperSep Phos-tag acrylamide gel (Alpha Laboratories) and visualized by staining with InstantBlue Protein Stain.

R15B = molecular target: T4, R15B (Homo sapiens, UniProt Q5SWA1); assay: Limited trypsin proteolysis of R15B (conformational change); conditions: 100 μM compound, 0.5 μM R15B, 2.5 nM trypsin, 30 min to 3 h, 22° C.
T4 construct: PPP1R15B amino acids 340-698 (R15B); His6 (C); made in house; host or cells: E. coli BL21 pLysS
T4 sequence (Q5SWA1 340-698): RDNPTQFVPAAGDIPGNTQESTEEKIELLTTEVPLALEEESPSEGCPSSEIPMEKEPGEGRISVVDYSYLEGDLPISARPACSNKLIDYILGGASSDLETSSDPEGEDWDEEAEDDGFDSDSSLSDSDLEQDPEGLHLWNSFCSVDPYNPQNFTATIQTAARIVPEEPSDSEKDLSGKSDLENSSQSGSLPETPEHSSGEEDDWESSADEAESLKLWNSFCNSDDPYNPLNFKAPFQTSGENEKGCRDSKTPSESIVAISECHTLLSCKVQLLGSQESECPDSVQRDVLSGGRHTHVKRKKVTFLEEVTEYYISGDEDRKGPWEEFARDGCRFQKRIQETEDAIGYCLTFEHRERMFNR
Method: as §3, §4

PP1c = molecular target: T5, PP1c (Homo sapiens, UniProt P62136); assay: Dephosphorylation of P-eIF2α by increasing amounts of PP1c alone; type: biochemical; conditions: compound 100 μM, 30° C., 16 h
T5 construct: The cDNA encoding amino acids 7-330 of human PP1cα; made in house; host or cells: E. coli BL21/pGro7 (PP1c); E. coli BL21 pLysS (eIF2α)
Method: as §1, §2

eIF2α = assay: Thermophoresis affinity measurement, binding to labelled P-eIF2α; parameters: species or system human
Method: Thermophoresis experiments were performed using a Monolith NT.115 instrument (NanoTemper Technologies). PP1c and P-eIF2α proteins were labeled using the Monolith NT Protein labelling Kit Red-NHS and stored for no longer than a month at −80° C. For thermophoresis, all protein dilutions were carried out in MST buffer (50 mM HEPES (pH 7.4), 100 mM NaCl, 0.1% Tween20, 2 mM MnCl2). Labelled proteins (100 nM) were mixed with equal volumes of serial dilutions of the unlabelled binding partner. In holophosphatase binding experiments, labelled P-eIF2 was diluted to 100 nM in MST buffer containing 10 μM regulatory subunit and then mixed as above with titrations of unlabelled PP1c. All experiments were carried out in enhanced grade capillaries, using 100% LED power and 100% IR-laser (on for 25 seconds (″)) at 20° C. NanoTemper Analysis 1.2.101 software was used to fit the data with a nonlinear solution of the law of mass action and KD values were determined. Each measurement was repeated in three independent experiments and KD values were averaged. Standard error of the mean (SEM) values are shown.

T2 sequence (O75807 325-636, stated change not applied): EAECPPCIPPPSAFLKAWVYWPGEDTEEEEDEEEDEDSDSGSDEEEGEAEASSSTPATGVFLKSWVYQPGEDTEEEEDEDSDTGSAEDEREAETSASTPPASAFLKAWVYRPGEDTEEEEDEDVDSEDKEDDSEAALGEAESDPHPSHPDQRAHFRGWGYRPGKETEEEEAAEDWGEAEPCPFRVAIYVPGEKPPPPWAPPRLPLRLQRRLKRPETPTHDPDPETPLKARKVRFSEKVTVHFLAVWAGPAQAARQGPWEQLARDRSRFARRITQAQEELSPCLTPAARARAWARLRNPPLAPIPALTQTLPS
T5 sequence (P62136 7-330): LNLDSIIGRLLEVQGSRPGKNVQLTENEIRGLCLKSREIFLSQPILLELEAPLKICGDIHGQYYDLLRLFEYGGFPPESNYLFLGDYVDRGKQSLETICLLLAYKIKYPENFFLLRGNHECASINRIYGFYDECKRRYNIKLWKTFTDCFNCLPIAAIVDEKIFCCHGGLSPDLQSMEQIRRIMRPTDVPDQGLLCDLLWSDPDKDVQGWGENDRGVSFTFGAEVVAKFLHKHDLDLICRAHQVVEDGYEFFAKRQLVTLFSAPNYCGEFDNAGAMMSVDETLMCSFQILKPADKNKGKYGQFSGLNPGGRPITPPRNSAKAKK
T1 sequence (O75807 325-636, stated change not applied): as the sequence (O75807 325-636, stated change not applied) above
T1 sequence (P62136 7-330 partner): as the sequence (P62136 7-330) above
T3 sequence (P62136 7-330 partner limits assumed, one chain of several): as the sequence (P62136 7-330) above

inhibition of R15A-PP1c eIF2α holophosphatase (R15A-PP1c): did not inhibit R15A-PP1 or R15B-PP1 | sensitivity of R15A to trypsin proteolysis (R15A [1]): did not alter the protease sensitivity | aggregation of R15A (light scattering at 380 nm) (R15A [2]; 1 mM compound): No aggregation | inhibition of R15B-PP1c eIF2α holophosphatase (R15B-PP1c): did not inhibit R15A-PP1 or R15B-PP1 | sensitivity of R15B to trypsin proteolysis (R15B): did not alter the protease sensitivity
Compound: N=C(N)N/N=C/c1ncccc1Cl [C3, (E)-2-((3-chloropyridin-2-yl)methylene)hydrazine-1-carboximidamide]
cytoprotection from ER stress (HeLa cells): inactive

inhibition of PP1c alone (PP1c): inhibited PP1c | aggregation of R15A (light scattering at 380 nm) (R15A [2]; 50 μM compound): induced robust aggregation
Compound: O=C(/C=C/c1ccccc1)NC(NC(=S)Nc1cccc2cccnc12)C(Cl)(Cl)Cl (stereo not shown) [Salubrinal]

Kd (eIF2α; 20° C.): ~650 nM
Compound: PP1c^D95A: catalytically inactive D95A mutant of human PP1cα (amino acids 7-330)

affinity for eIF2α relative to isolated PP1c^D95A (eIF2α; 10 μM regulatory subunit): 3.0 times higher
Compound: R15B-PP1c^D95A: holophosphatase complex of R15B (PPP1R15B 340-698) with PP1c^D95A
